Patent publication US20230085307A1, “PYRIDAZINONE COMPOUND AND HERBICIDE” (NISSAN CHEMICAL CORPORATION, priority 2019, published 2023)

What was measured:
Italian ryegrass [1] = assay: Test Example 5: herbicidal effect by foliage application, plastic box (Table 20, symbol K); type: in vivo, Italian ryegrass (Lolium multiflorum); details: for Herbicidal effect by foliage application, K: Italian ryegrass: amount of applied herbicide 320 g/ha, foliage application after 14-day growth, evaluated three weeks after application
Outline: (§1)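 Plants were sown into sterilized diluvial soil under about 1.5 cm cover and kept in a greenhouse at 25° C. to 30° C. Fourteen days on, foliage received an even spray of the diluted emulsion. Herbicidal or crop effect was judged three weeks afterwards.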

lambsquarters [2] = assay: Test Example 4: herbicidal effect by soil treatment (Table 19, symbol O); type: in vivo, lambsquarters (Chenopodium album); details: AAH 320 g/ha
Outline: (§2)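 Pre-emergence style soil spray: seeds under ~1.5 cm sterilized diluvial soil received a uniform coat of emulsion diluted to the predetermined herbicide amount. Greenhouse 25–30° C; readout at week three on previously defined criteria.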

blackgrass = assay: Test Example 5: herbicidal effect by foliage application, plastic box (Table 20, symbol J); type: in vivo, blackgrass (Alopecurus myosuroides); details: for Herbicidal effect by foliage application, J: blackgrass: amount of applied herbicide 320 g/ha, foliage application after 14-day growth, evaluated three weeks after application
Outline: as §1

wild oat [3] = assay: Test Example 5: herbicidal effect by foliage application, plastic box (Table 20, symbol I); type: in vivo, wild oat (Avena fatua); details: for Herbicidal effect by foliage application, I: wild oat: amount of applied herbicide 320 g/ha, foliage application after 14-day growth, evaluated three weeks after application
Outline: as §1

windgrass [4] = assay: Test Example 4: herbicidal effect by soil treatment (Table 19, symbol L); type: in vivo, windgrass (Apera spica-venti); details: AAH 320 g/ha
Outline: as §2

persian speedwell [5] = assay: Test Example 5: herbicidal effect by foliage application, plastic box (Table 20, symbol R); type: in vivo, Persian speedwell (Veronica persica); details: for Herbicidal effect by foliage application, R: persian speedwell: amount of applied herbicide 320 g/ha, foliage application after 14-day growth, evaluated three weeks after application
Outline: as §1

rice flat sedge = assay: Test Example 3: herbicidal effect by foliage application, Wagner pot (Table 18, symbol E); type: in vivo, rice flat sedge (Cyperus iria); details: 320 g/ha
Outline: (§3)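 Plants were sown in alluvial soil held under 0.1–0.5 cm standing water and grown 14 days in a greenhouse at 25–30 °C. An emulsifiable formulation, water-diluted to the set dose, was then sprayed onto the foliage, and effects were scored three weeks later using previously defined criteria.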

barnyard grass [6] = assay: Test Example 3: herbicidal effect by foliage application, Wagner pot (Table 18, symbol H); type: in vivo, barnyard grass (Echinochloa crus-galli); details: 320 g/ha
Outline: as §3

lambsquarters [7] = assay: Test Example 5: herbicidal effect by foliage application, plastic box (Table 20, symbol O); type: in vivo, lambsquarters (Chenopodium album); details: for Herbicidal effect by foliage application, O: lambsquarters: amount of applied herbicide 320 g/ha, foliage application after 14-day growth, evaluated three weeks after application
Outline: as §1

false cleavers = assay: Test Example 5: herbicidal effect by foliage application, plastic box (Table 20, symbol Q); type: in vivo, false cleavers (Galium spurium); details: for Herbicidal effect by foliage application, Q: false cleavers: amount of applied herbicide 320 g/ha, foliage application after 14-day growth, evaluated three weeks after application
Outline: as §1

velvetleaf [8] = assay: Test Example 5: herbicidal effect by foliage application, plastic box (Table 20, symbol M); type: in vivo, velvetleaf (Abutilon theophrasti); details: for Herbicidal effect by foliage application, M: velvetleaf: amount of applied herbicide 320 g/ha, foliage application after 14-day growth, evaluated three weeks after application
Outline: as §1

redroot pigweed [9] = assay: Test Example 4: herbicidal effect by soil treatment (Table 19, symbol N); type: in vivo, redroot pigweed (Amaranthus retroflexus); details: AAH 320 g/ha
Outline: as §2

southern crabgrass [10] = assay: Test Example 5: herbicidal effect by foliage application, plastic box (Table 20, symbol F); type: in vivo, southern crabgrass (Digitaria ciliaris); details: for Herbicidal effect by foliage application, F: southern crabgrass: amount of applied herbicide 320 g/ha, foliage application after 14-day growth, evaluated three weeks after application
Outline: as §1

velvetleaf [11] = assay: Test Example 4: herbicidal effect by soil treatment (Table 19, symbol M); type: in vivo, velvetleaf (Abutilon theophrasti); details: AAH 320 g/ha
Outline: as §2

redroot pigweed [12] = assay: Test Example 5: herbicidal effect by foliage application, plastic box (Table 20, symbol N); type: in vivo, redroot pigweed (Amaranthus retroflexus); details: for Herbicidal effect by foliage application, N: redroot pigweed: amount of applied herbicide 320 g/ha, foliage application after 14-day growth, evaluated three weeks after application
Outline: as §1

Chinese sprangletop = assay: Test Example 3: herbicidal effect by foliage application, Wagner pot (Table 18, symbol D); type: in vivo, chinese sprangletop (Leptochloa chinensis); details: 320 g/ha
Outline: as §3

green foxtail [13] = assay: Test Example 5: herbicidal effect by foliage application, plastic box (Table 20, symbol G); type: in vivo, green foxtail (Setaria viridis); details: for Herbicidal effect by foliage application, G: green foxtail: amount of applied herbicide 320 g/ha, foliage application after 14-day growth, evaluated three weeks after application
Outline: as §1

wild oat [14] = assay: Test Example 4: herbicidal effect by soil treatment (Table 19, symbol I); type: in vivo, wild oat (Avena fatua); details: AAH 320 g/ha
Outline: as §2

green foxtail [15] = assay: Test Example 4: herbicidal effect by soil treatment (Table 19, symbol G); type: in vivo, green foxtail (Setaria viridis); details: AAH 320 g/ha
Outline: as §2

barnyard grass [16] = assay: Test Example 5: herbicidal effect by foliage application, plastic box (Table 20, symbol H); type: in vivo, barnyard grass (Echinochloa crus-galli); details: for Herbicidal effect by foliage application, H: barnyard grass: amount of applied herbicide 320 g/ha, foliage application after 14-day growth, evaluated three weeks after application
Outline: as §1

windgrass [17] = assay: Test Example 5: herbicidal effect by foliage application, plastic box (Table 20, symbol L); type: in vivo, windgrass (Apera spica-venti); details: for Herbicidal effect by foliage application, L: windgrass: amount of applied herbicide 320 g/ha, foliage application after 14-day growth, evaluated three weeks after application
Outline: as §1

southern crabgrass [18] = assay: Test Example 4: herbicidal effect by soil treatment (Table 19, symbol F); type: in vivo, southern crabgrass (Digitaria ciliaris); details: AAH 320 g/ha
Outline: as §2

chickweed [19] = assay: Test Example 5: herbicidal effect by foliage application, plastic box (Table 20, symbol P); type: in vivo, common chickweed (Stellaria media); details: for Herbicidal effect by foliage application, P: chickweed: amount of applied herbicide 320 g/ha, foliage application after 14-day growth, evaluated three weeks after application
Outline: as §1

chickweed [20] = assay: Test Example 4: herbicidal effect by soil treatment (Table 19, symbol P); type: in vivo, common chickweed (Stellaria media); details: AAH 320 g/ha
Outline: as §2

persian speedwell [21] = assay: Test Example 4: herbicidal effect by soil treatment (Table 19, symbol R); type: in vivo, Persian speedwell (Veronica persica); details: AAH 320 g/ha
Outline: as §2

barnyard grass [22] = assay: Test Example 4: herbicidal effect by soil treatment (Table 19, symbol H); type: in vivo, barnyard grass (Echinochloa crus-galli); details: AAH 320 g/ha
Outline: as §2

Italian ryegrass [23] = assay: Test Example 4: herbicidal effect by soil treatment (Table 19, symbol K); type: in vivo, Italian ryegrass (Lolium multiflorum); details: AAH 320 g/ha
Outline: as §2

[24] = foliage application, AAH 320 g/ha, three weeks after application

Compound: CCCC(=O)Oc1c(OC)nn(C)c(=O)c1-c1c(-c2cc(F)c(F)c(F)c2)sc2ccccc12 [1-187]
- K: Italian ryegrass, herbicidal effect (Italian ryegrass [1]; [24]): 0 (Herbicidal rate of 5% or less (almost no effect))
- O: lambsquarters, herbicidal effect rating (lambsquarters [2]): 4 (Herbicidal rate of 70% or more and less than 90%)
- J: blackgrass, herbicidal effect (blackgrass; [24]): 0 (Herbicidal rate of 5% or less (almost no effect))
- I: wild oat, herbicidal effect (wild oat [3]; [24]): 0 (Herbicidal rate of 5% or less (almost no effect))
- L: windgrass, herbicidal effect rating (windgrass [4]): 0 (Herbicidal rate of 5% or less (almost no effect))
- R: persian speedwell, herbicidal effect (persian speedwell [5]; [24]): 5 (Herbicidal rate of 90% or more (almost completely withered))
- herbicidal effect on E (rice flat sedge), rating 0-5 (rice flat sedge): 3 (Herbicidal rate of 40% or more and less than 70%)
- herbicidal effect on H (barnyard grass), rating 0-5 (barnyard grass [6]): 0 (Herbicidal rate of 5% or less (almost no effect))
- O: lambsquarters, herbicidal effect (lambsquarters [7]; [24]): 5 (Herbicidal rate of 90% or more (almost completely withered))
- Q: false cleavers, herbicidal effect (false cleavers; [24]): 0 (Herbicidal rate of 5% or less (almost no effect))
- M: velvetleaf, herbicidal effect (velvetleaf [8]; [24]): 4 (Herbicidal rate of 70% or more and less than 90%)
- N: redroot pigweed, herbicidal effect rating (redroot pigweed [9]): 0 (Herbicidal rate of 5% or less (almost no effect))
- F: southern crabgrass, herbicidal effect (southern crabgrass [10]; [24]): 0 (Herbicidal rate of 5% or less (almost no effect))
- M: velvetleaf, herbicidal effect rating (velvetleaf [11]): 0 (Herbicidal rate of 5% or less (almost no effect))
- N: redroot pigweed, herbicidal effect (redroot pigweed [12]; [24]): 4 (Herbicidal rate of 70% or more and less than 90%)
- herbicidal effect on D (Chinese sprangletop), rating 0-5 (Chinese sprangletop): 0 (Herbicidal rate of 5% or less (almost no effect))
- G: green foxtail, herbicidal effect (green foxtail [13]; [24]): 0 (Herbicidal rate of 5% or less (almost no effect))
- I: wild oat, herbicidal effect rating (wild oat [14]): 0 (Herbicidal rate of 5% or less (almost no effect))
- G: green foxtail, herbicidal effect rating (green foxtail [15]): 0 (Herbicidal rate of 5% or less (almost no effect))
- H: barnyard grass, herbicidal effect (barnyard grass [16]; [24]): 0 (Herbicidal rate of 5% or less (almost no effect))
- L: windgrass, herbicidal effect (windgrass [17]; [24]): 0 (Herbicidal rate of 5% or less (almost no effect))
- F: southern crabgrass, herbicidal effect rating (southern crabgrass [18]): 0 (Herbicidal rate of 5% or less (almost no effect))
- P: chickweed, herbicidal effect (chickweed [19]; [24]): 3 (Herbicidal rate of 40% or more and less than 70%)
- P: chickweed, herbicidal effect rating (chickweed [20]): 5 (Herbicidal rate of 90% or more (almost completely withered))
- R: persian speedwell, herbicidal effect rating (persian speedwell [21]): 4 (Herbicidal rate of 70% or more and less than 90%)
- H: barnyard grass, herbicidal effect rating (barnyard grass [22]): 0 (Herbicidal rate of 5% or less (almost no effect))
- K: Italian ryegrass, herbicidal effect rating (Italian ryegrass [23]): 0 (Herbicidal rate of 5% or less (almost no effect))

Compound: CSc1ccccc1-c1sc2c(Cl)cccc2c1-c1c(O)c(C)nn(C)c1=O [4-086]
- Herbicidal effect by foliage application, K: Italian ryegrass (Italian ryegrass [1]): 0 (Herbicidal rate of 5% or less (almost no effect))
- Herbicidal effect by foliage application, J: blackgrass (blackgrass): 0 (Herbicidal rate of 5% or less (almost no effect))
- Herbicidal effect by foliage application, I: wild oat (wild oat [3]): 0 (Herbicidal rate of 5% or less (almost no effect))
- Herbicidal effect by foliage application, R: persian speedwell (persian speedwell [5]): 5 (Herbicidal rate of 90% or more (almost completely withered))
- herbicidal effect on rice flat sedge (E) (rice flat sedge): 3 (Herbicidal rate of 40% or more and less than 70%)
- herbicidal effect on barnyard grass (H) (barnyard grass [6]): 4 (Herbicidal rate of 70% or more and less than 90%)
- Herbicidal effect by foliage application, O: lambsquarters (lambsquarters [7]): 3 (Herbicidal rate of 40% or more and less than 70%)
- Herbicidal effect by foliage application, Q: false cleavers (false cleavers): 1 (Herbicidal rate of 5% or more and less than 20%)
- Herbicidal effect by foliage application, M: velvetleaf (velvetleaf [8]): 3 (Herbicidal rate of 40% or more and less than 70%)
- Herbicidal effect by foliage application, F: southern crabgrass (southern crabgrass [10]): 0 (Herbicidal rate of 5% or less (almost no effect))
- Herbicidal effect by foliage application, N: redroot pigweed (redroot pigweed [12]): 4 (Herbicidal rate of 70% or more and less than 90%)
- herbicidal effect on Chinese sprangletop (D) (Chinese sprangletop): 3 (Herbicidal rate of 40% or more and less than 70%)
- Herbicidal effect by foliage application, G: green foxtail (green foxtail [13]): 3 (Herbicidal rate of 40% or more and less than 70%)
- Herbicidal effect by foliage application, H: barnyard grass (barnyard grass [16]): 1 (Herbicidal rate of 5% or more and less than 20%)
- Herbicidal effect by foliage application, L: windgrass (windgrass [17]): 4 (Herbicidal rate of 70% or more and less than 90%)
- Herbicidal effect by foliage application, P: chickweed (chickweed [19]): 5 (Herbicidal rate of 90% or more (almost completely withered))

Compound: CCSc1ccccc1-c1sc2c(C)cccc2c1-c1c(O)c(C)nn(C)c1=O [4-120]
- Herbicidal effect by foliage application, K: Italian ryegrass (Italian ryegrass [1]): 0 (Herbicidal rate of 5% or less (almost no effect))
- Herbicidal effect by foliage application, J: blackgrass (blackgrass): 0 (Herbicidal rate of 5% or less (almost no effect))
- Herbicidal effect by foliage application, I: wild oat (wild oat [3]): 0 (Herbicidal rate of 5% or less (almost no effect))
- Herbicidal effect by foliage application, R: persian speedwell (persian speedwell [5]): 5 (Herbicidal rate of 90% or more (almost completely withered))
- herbicidal effect on rice flat sedge (E) (rice flat sedge): 2 (Herbicidal rate of 20% or more and less than 40%)
- herbicidal effect on barnyard grass (H) (barnyard grass [6]): 2 (Herbicidal rate of 20% or more and less than 40%)
- Herbicidal effect by foliage application, O: lambsquarters (lambsquarters [7]): 0 (Herbicidal rate of 5% or less (almost no effect))
- Herbicidal effect by foliage application, Q: false cleavers (false cleavers): 0 (Herbicidal rate of 5% or less (almost no effect))
- Herbicidal effect by foliage application, M: velvetleaf (velvetleaf [8]): 0 (Herbicidal rate of 5% or less (almost no effect))
- Herbicidal effect by foliage application, F: southern crabgrass (southern crabgrass [10]): 0 (Herbicidal rate of 5% or less (almost no effect))
- Herbicidal effect by foliage application, N: redroot pigweed (redroot pigweed [12]): 0 (Herbicidal rate of 5% or less (almost no effect))
- herbicidal effect on Chinese sprangletop (D) (Chinese sprangletop): 3 (Herbicidal rate of 40% or more and less than 70%)
- Herbicidal effect by foliage application, G: green foxtail (green foxtail [13]): 0 (Herbicidal rate of 5% or less (almost no effect))
- Herbicidal effect by foliage application, H: barnyard grass (barnyard grass [16]): 0 (Herbicidal rate of 5% or less (almost no effect))
- Herbicidal effect by foliage application, L: windgrass (windgrass [17]): 0 (Herbicidal rate of 5% or less (almost no effect))
- Herbicidal effect by foliage application, P: chickweed (chickweed [19]): 5 (Herbicidal rate of 90% or more (almost completely withered))
